From ChEMBL document CHEMBL1128165, “Quinuclidine-based NK1 antagonists, the role of the benzhydryl” (Bioorg Med Chem Lett, 1995)

Experiments:
Substance-P receptor [1] = target: Substance-P receptor (Homo sapiens, UniProt P25103, H197A); experiment: Binding affinity towards human mutant NK-1 receptor in which His-197 has been replaced by alanine (H197A)
Substance-P receptor [2] = target: Substance-P receptor (Homo sapiens, UniProt P25103); experiment: Binding affinity towards wild type human Wild-type tachykinin receptor 1 expressed in Chinese hamster ovary cells; assay type: cell-based
Substance-P receptor (Homo sapiens, UniProt P25103), sequence (P25103 whole entry): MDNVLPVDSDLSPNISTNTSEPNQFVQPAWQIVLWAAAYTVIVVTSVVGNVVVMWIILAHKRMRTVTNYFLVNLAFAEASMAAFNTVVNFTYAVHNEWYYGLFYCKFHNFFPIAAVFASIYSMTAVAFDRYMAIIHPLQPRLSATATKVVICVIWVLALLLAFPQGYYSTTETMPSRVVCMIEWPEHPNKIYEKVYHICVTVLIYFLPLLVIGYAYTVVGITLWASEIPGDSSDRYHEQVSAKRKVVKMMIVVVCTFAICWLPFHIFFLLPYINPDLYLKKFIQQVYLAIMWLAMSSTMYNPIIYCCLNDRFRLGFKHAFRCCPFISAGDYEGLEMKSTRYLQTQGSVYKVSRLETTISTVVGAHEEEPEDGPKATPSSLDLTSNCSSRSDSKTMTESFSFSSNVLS

Substance-P receptor (Homo sapiens, UniProt P25103, H197A), sequence (P25103 whole entry H197A): as the sequence (P25103 whole entry) above, with H197A counted along it

Structure (SMILES) | IC50 (Substance-P receptor [1]) [nM] | IC50 (Substance-P receptor [2]) [nM]
FC(F)(F)c1cc(CO[C@H]2C3CCN(CC3)[C@H]2Cc2ccccc2)cc(C(F)(F)F)c1 | 500 | 197
Cc1cc(C)cc(CO[C@H]2C3CCN(CC3)[C@H]2Cc2ccccc2)c1 | 845 | 292
Cc1cc(C)cc(CO[C@H]2C3CCN(CC3)[C@H]2C(c2ccccc2)c2ccccc2)c1 [L-706125] | 196 | 2
FC(F)(F)c1cc(CO[C@H]2C3CCN(CC3)[C@H]2C(c2ccccc2)c2ccccc2)cc(C(F)(F)F)c1 [L-709210] | 330 | 2
